# Experimental data as given in ChEMBL document CHEMBL1201861, “Genomics of Drug Sensitity in Cancer screening data, Wellcome Trust Sanger Institute”.
# pIC50: −log10 of the molar value.
# Legend:
# [1] = tested on: D-247MG; experiment: cells; format: functional, cell-based; conditions: Homo sapiens
# Description: SANGER: Inhibition of human D-247MG cell growth in a cell viability assay.
# [2] = tested on: Daudi; experiment: cells; format: functional, cell-based; conditions: Homo sapiens;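 further: growth inhibition of Daudi cells, read out by a viability assay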
# Description: SANGER: Inhibition of human Daudi cell growth in a cell viability assay.
# [3] = tested on: EB-3; experiment: cells; format: functional, cell-based; conditions: Homo sapiens;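 further: human EB-3 cells, growth inhibition read out via a cell viability assay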
# Description: SANGER: Inhibition of human EB-3 cell growth in a cell viability assay.
# [4] = tested on: LC-1F; experiment: cells; format: functional, cell-based; conditions: Homo sapiens;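 further: growth inhibition of human LC-1F cells, read out with a cell viability assay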
# Description: SANGER: Inhibition of human LC-1F cell growth in a cell viability assay.
# [5] = tested on: MRK-nu-1; experiment: cells; format: functional, cell-based; conditions: Homo sapiens;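 further: cell viability assay measuring growth suppression of human MRK-nu-1 cells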
# Description: SANGER: Inhibition of human MRK-nu-1 cell growth in a cell viability assay.
# [6] = tested on: NALM-6; experiment: cells; format: functional, cell-based; conditions: Homo sapiens;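 further: growth inhibition of NALM-6 cells, read out with a cell viability assay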
# Description: SANGER: Inhibition of human NALM-6 cell growth in a cell viability assay.
# [7] = tested on: SU-DHL-1; experiment: SANGER: Inhibition of human SU-DHL-1 cell growth in a cell viability assay.; format: functional, cell-based
# [8] = tested on: TALL-1; experiment: cells; format: functional, cell-based; conditions: Homo sapiens;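 further: growth inhibition of cultured human TALL-1 cells, read out by a cell viability assay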
# Description: SANGER: Inhibition of human TALL-1 cell growth in a cell viability assay.
# [9] = tested on: BC1 cell line; experiment: SANGER: Inhibition of human BC-1 cell growth in a cell viability assay.; format: functional, cell-based
# [10] = tested on: BC-3; experiment: cells; format: functional, cell-based; conditions: Homo sapiens;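 further: cell viability assay measuring growth inhibition of human BC-3 cells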
# Description: SANGER: Inhibition of human BC-3 cell growth in a cell viability assay.
# [11] = tested on: TUR; experiment: cells; format: functional, cell-based; conditions: Homo sapiens;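 further: growth inhibition of human TUR cells, read out with a cell viability assay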
# Description: SANGER: Inhibition of human TUR cell growth in a cell viability assay.
# [12] = tested on: CHP-126; experiment: cells; format: functional, cell-based; conditions: Homo sapiens
# Description: SANGER: Inhibition of human CHP-126 cell growth in a cell viability assay.
# [13] = tested on: COLO-741; experiment: cells; format: functional, cell-based; conditions: Homo sapiens
# Description: SANGER: Inhibition of human COLO-741 cell growth in a cell viability assay.
# [14] = tested on: CP50-MEL-B; experiment: cells; format: functional, cell-based; conditions: Homo sapiens;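 further: growth inhibition of the human cell line, measured with a cell viability read-out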
# Description: SANGER: Inhibition of human CP50-MEL-B cell growth in a cell viability assay.
# [15] = tested on: DU-145; experiment: cells; format: functional, cell-based; conditions: Homo sapiens
# Description: SANGER: Inhibition of human DU-145 cell growth in a cell viability assay.
# [16] = tested on: DoTc2-4510; experiment: cells; format: functional, cell-based; conditions: Homo sapiens
# [17] = tested on: ESS-1; experiment: cells; format: functional, cell-based; conditions: Homo sapiens;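 further: growth inhibition of human ESS-1 cells, read out by a cell viability assay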
# Description: SANGER: Inhibition of human ESS-1 cell growth in a cell viability assay.
# [18] = tested on: GCT; experiment: cells; format: functional, cell-based; conditions: Homo sapiens;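 further: GCT cell line proliferation inhibition, read out with a cell viability assay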
# Description: SANGER: Inhibition of human GCT cell growth in a cell viability assay.
# [19] = tested on: GP5d; experiment: cells; format: functional, cell-based; conditions: Homo sapiens;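 further: growth inhibition of human GP5d cells, read out with a cell viability assay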
# Description: SANGER: Inhibition of human GP5d cell growth in a cell viability assay.
# [20] = tested on: HCC1937; experiment: cells; format: functional, cell-based; conditions: Homo sapiens;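 further: growth inhibition measured with a cell viability read-out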
# Description: SANGER: Inhibition of human HCC1937 cell growth in a cell viability assay.
# [21] = tested on: HCC38; experiment: cells; format: functional, cell-based; conditions: Homo sapiens;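 further: cell viability assay on the human HCC38 cell line, with IC50 marking the concentration that inhibits cell growth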
# Description: SANGER: Inhibition of human HCC38 cell growth in a cell viability assay.
# [22] = tested on: HCT-116; experiment: cells; format: functional, cell-based; conditions: Homo sapiens
# Description: SANGER: Inhibition of human HCT-116 cell growth in a cell viability assay.
# [23] = tested on: HOP-92; experiment: cells; format: functional, cell-based; conditions: Homo sapiens;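 further: cell viability readout, with IC50 reflecting inhibition of HOP-92 cell growth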
# Description: SANGER: Inhibition of human HOP-92 cell growth in a cell viability assay.
# [24] = tested on: HOS; experiment: cells; format: functional, cell-based; conditions: Homo sapiens;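 further: growth inhibition of human HOS cells, read out with a cell viability assay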
# Description: SANGER: Inhibition of human HOS cell growth in a cell viability assay.
# [25] = tested on: HT-1080; experiment: cells; format: functional, cell-based; conditions: Homo sapiens
# Description: SANGER: Inhibition of human HT-1080 cell growth in a cell viability assay.
# [26] = tested on: HT55; experiment: cells; format: functional, cell-based; conditions: Homo sapiens;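 further: cell viability readout measuring growth inhibition of human HT55 cells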
# Description: SANGER: Inhibition of human HT55 cell growth in a cell viability assay.
# [27] = tested on: HuCCT-1; experiment: cells; format: functional, cell-based, HuCCT1; conditions: Homo sapiens;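 further: growth inhibition of HuCCT-1 cells, read out by a cell viability assay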
# Description: SANGER: Inhibition of human HuCCT1 cell growth in a cell viability assay.
# [28] = tested on: HuP-T3; experiment: cells; format: functional, cell-based; conditions: Homo sapiens;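 further: HuP-T3 cell growth inhibition, read out with a cell viability assay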
# Description: SANGER: Inhibition of human HuP-T3 cell growth in a cell viability assay.
# [29] = tested on: IGR-1; experiment: cells; format: functional, cell-based; conditions: Homo sapiens;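 further: growth inhibition of human IGR-1 cells, read out with a cell viability assay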
# Description: SANGER: Inhibition of human IGR-1 cell growth in a cell viability assay.
# [30] = tested on: KYSE-510; experiment: cells; format: functional, cell-based; conditions: Homo sapiens;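 further: cell viability readout used to measure how strongly growth of the cell line is suppressed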
# Description: SANGER: Inhibition of human KYSE-510 cell growth in a cell viability assay.
# [31] = tested on: MCF7; experiment: cells; format: functional, cell-based; conditions: Homo sapiens;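 further: growth inhibition of human MCF7 cells, read out with a cell viability assay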
# Description: SANGER: Inhibition of human MCF7 cell growth in a cell viability assay.
# [32] = tested on: MFE-280; experiment: cells; format: functional, cell-based; conditions: Homo sapiens;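 further: growth inhibition of MFE-280 cells, determined with a cell viability readout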
# Description: SANGER: Inhibition of human MFE-280 cell growth in a cell viability assay.
# [33] = tested on: MKN-1; experiment: cells; format: functional, cell-based; conditions: Homo sapiens;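 further: growth inhibition of human MKN1 cells, read out by a cell viability measurement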
# Description: SANGER: Inhibition of human MKN1 cell growth in a cell viability assay.
# [34] = tested on: MKN-7; experiment: cells; format: functional, cell-based; conditions: Homo sapiens;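 further: growth inhibition of MKN-7 cells, read out with a cell viability assay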
# Description: SANGER: Inhibition of human MKN7 cell growth in a cell viability assay.
# [35] = tested on: MeWo; experiment: cells; format: functional, cell-based; conditions: Homo sapiens;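 further: growth inhibition of MeWo cells, determined by a cell viability readout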
# Description: SANGER: Inhibition of human Mewo cell growth in a cell viability assay.
# [36] = tested on: NCI-H1437; experiment: cells; format: functional, cell-based; conditions: Homo sapiens;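 further: growth inhibition of human NCI-H1437 cells, read out by a cell viability assay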
# Description: SANGER: Inhibition of human NCI-H1437 cell growth in a cell viability assay.
# [37] = tested on: NCI-H1755; experiment: cells; format: functional, cell-based; conditions: Homo sapiens;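 further: cell viability readout used to measure growth inhibition of NCI-H1755 cells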
# Description: SANGER: Inhibition of human NCI-H1755 cell growth in a cell viability assay.
# [38] = tested on: NCI-H2228; experiment: cells; format: functional, cell-based; conditions: Homo sapiens;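 further: growth inhibition of human NCI-H2228 cells, read out by a cell viability assay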
# Description: SANGER: Inhibition of human NCI-H2228 cell growth in a cell viability assay.
# [39] = tested on: NCI-H2405; experiment: cells; format: functional, cell-based; conditions: Homo sapiens;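 further: growth inhibition of the human cell line, read out with a cell viability assay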
# Description: SANGER: Inhibition of human NCI-H2405 cell growth in a cell viability assay.
# [40] = tested on: NCI-H28; experiment: cells; format: functional, cell-based; conditions: Homo sapiens;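 further: growth inhibition of human NCI-H28 cells, read out as cell viability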
# Description: SANGER: Inhibition of human NCI-H28 cell growth in a cell viability assay.
# [41] = tested on: NCI-H460; experiment: cells; format: functional, cell-based; conditions: Homo sapiens;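 further: cell viability assay scoring growth inhibition of human NCI-H460 cells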
# Description: SANGER: Inhibition of human NCI-H460 cell growth in a cell viability assay.
# [42] = tested on: NCI-H596; experiment: cells; format: functional, cell-based; conditions: Homo sapiens;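 further: growth inhibition of NCI-H596 cells, read out with a cell viability assay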
# Description: SANGER: Inhibition of human NCI-H596 cell growth in a cell viability assay.
# [43] = tested on: NCI-H650; experiment: cells; format: functional, cell-based; conditions: Homo sapiens;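 further: growth inhibition of NCI-H650 cells, read out by a viability assay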
# Description: SANGER: Inhibition of human NCI-H650 cell growth in a cell viability assay.
# [44] = tested on: NCI-H661; experiment: cells; format: functional, cell-based; conditions: Homo sapiens;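 further: cell viability assay read-out, IC50 being the concentration that inhibits growth of the cells by half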
# Description: SANGER: Inhibition of human NCI-H661 cell growth in a cell viability assay.
# [45] = tested on: OAW-28; experiment: cells; format: functional, cell-based; conditions: Homo sapiens;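 further: growth inhibition of OAW-28 cells, read out with a cell viability assay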
# Description: SANGER: Inhibition of human OAW-28 cell growth in a cell viability assay.
# [46] = tested on: RVH-421; experiment: cells; format: functional, cell-based; conditions: Homo sapiens
# Description: SANGER: Inhibition of human RVH-421 cell growth in a cell viability assay.
# [47] = tested on: SF-295; experiment: cells; format: functional, cell-based; conditions: Homo sapiens;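 further: growth inhibition of SF-295 cells, read out with a cell viability assay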
# Description: SANGER: Inhibition of human SF295 cell growth in a cell viability assay.
# [48] = tested on: SK-LU-1; experiment: cells; format: functional, cell-based; conditions: Homo sapiens;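 further: cell viability assay measuring growth inhibition of human SK-LU-1 cells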
# Description: SANGER: Inhibition of human SK-LU-1 cell growth in a cell viability assay.
# [49] = tested on: SK-MEL-28; experiment: cells; format: functional, cell-based; conditions: Homo sapiens;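 further: growth inhibition of human SK-MEL-28 cells, read out with a cell viability assay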
# Description: SANGER: Inhibition of human SK-MEL-28 cell growth in a cell viability assay.
# [50] = tested on: SW1417; experiment: cells; format: functional, cell-based; conditions: Homo sapiens;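 further: growth inhibition of human SW1417 cells, read out with a cell viability assay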
# Description: SANGER: Inhibition of human SW1417 cell growth in a cell viability assay.
# [51] = tested on: SW1573; experiment: cells; format: functional, cell-based; conditions: Homo sapiens;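 further: growth inhibition of SW1573 cells, read out with a cell viability assay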
# Description: SANGER: Inhibition of human SW1573 cell growth in a cell viability assay.
# [52] = tested on: SW1990; experiment: cells; format: functional, cell-based; conditions: Homo sapiens
# Description: SANGER: Inhibition of human SW1990 cell growth in a cell viability assay.
# [53] = tested on: SAOS-2; experiment: cells; format: functional, cell-based; conditions: Homo sapiens;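 further: growth inhibition of human Saos-2 cells determined by a cell viability assay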
# Description: SANGER: Inhibition of human Saos-2 cell growth in a cell viability assay.
# [54] = tested on: T-24; experiment: cells; format: functional, cell-based; conditions: Homo sapiens;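 further: growth inhibition of T-24 cells, read out with a cell viability assay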
# Description: SANGER: Inhibition of human T-24 cell growth in a cell viability assay.
# [55] = tested on: 647-V; experiment: cells; format: functional, cell-based; conditions: Homo sapiens;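 further: growth inhibition of 647-V cells, read out with a cell viability assay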
# Description: SANGER: Inhibition of human 647-V cell growth in a cell viability assay.
# [56] = tested on: 8305C; experiment: cells; format: functional, cell-based; conditions: Homo sapiens
# Description: SANGER: Inhibition of human 8305C cell growth in a cell viability assay.
# [57] = tested on: A204; experiment: cells; format: functional, cell-based; conditions: Homo sapiens;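 further: growth inhibition of human A204 cells, read out with a cell viability assay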
# Description: SANGER: Inhibition of human A204 cell growth in a cell viability assay.
# [58] = tested on: ACHN; experiment: cells; format: functional, cell-based; conditions: Homo sapiens;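 further: cell viability read-out used to gauge how strongly growth of human ACHN cells is suppressed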
# Description: SANGER: Inhibition of human ACHN cell growth in a cell viability assay.
# [59] = tested on: BHY; experiment: cells; format: functional, cell-based; conditions: Homo sapiens;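 further: cell growth inhibition read out by a viability assay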
# Description: SANGER: Inhibition of human BHY cell growth in a cell viability assay.
# [60] = tested on: BPH-1; experiment: cells; format: functional, cell-based; conditions: Homo sapiens
# Description: SANGER: Inhibition of human BPH-1 cell growth in a cell viability assay.
# [61] = tested on: UACC-62; experiment: cells; format: functional, cell-based; conditions: Homo sapiens
# Description: SANGER: Inhibition of human UACC-62 cell growth in a cell viability assay.
# [62] = tested on: UACC-893; experiment: cells; format: functional, cell-based; conditions: Homo sapiens
# Description: SANGER: Inhibition of human UACC-893 cell growth in a cell viability assay.
# [63] = tested on: VM-CUB-1; experiment: cells; format: functional, cell-based; conditions: Homo sapiens
# Description: SANGER: Inhibition of human VM-CUB-1 cell growth in a cell viability assay.
# [64] = tested on: COLO-678; experiment: cells; format: functional, cell-based; conditions: Homo sapiens
# Description: SANGER: Inhibition of human COLO-678 cell growth in a cell viability assay.
smiles,measurement,setting,value
CCNc1cc(N[C@H]2CC[C@@H](O)CC2)nc(Nc2ccc3c(ccn3Cc3ccccc3)c2)n1,pIC50,[1],< 5.29
same,pIC50,[2],< 5.29
same,pIC50,[3],< 5.29
same,pIC50,[4],< 5.29
same,pIC50,[5],5.51
same,pIC50,[6],5.30
same,pIC50,[7],< 5.29
same,pIC50,[8],< 5.29
same,pIC50,[9],< 5.29
same,pIC50,[10],< 5.29
same,pIC50,[11],< 5.29
same,pIC50,[12],< 5.29
COc1cc(C)c(Sc2cnc(NC(=O)c3ccc(CNC(C)C(C)(C)C)cc3)s2)cc1C(=O)N1CCN(C(C)=O)CC1 (stereo not given),pIC50,[1],< 4.99
same,pIC50,[2],< 4.99
same,pIC50,[3],< 4.99
same,pIC50,[4],< 4.99
same,pIC50,[5],5.08
same,pIC50,[6],5.00
same,pIC50,[7],< 4.99
same,pIC50,[8],< 4.99
same,pIC50,[9],5.04
same,pIC50,[10],< 4.99
same,pIC50,[11],< 4.99
same,pIC50,[12],< 4.99
Cc1ccc(NC(=O)c2cccc(C(C)(C)C#N)c2)cc1Nc1ccc2ncn(C)c(=O)c2c1,pIC50,[1],< 5.40
same,pIC50,[2],< 5.40
same,pIC50,[3],< 5.40
same,pIC50,[4],5.48
same,pIC50,[5],< 5.40
same,pIC50,[6],< 5.40
same,pIC50,[7],5.45
same,pIC50,[8],< 5.40
same,pIC50,[9],< 5.40
same,pIC50,[10],< 5.40
same,pIC50,[11],< 5.40
same,pIC50,[12],< 5.40
Fc1cc(-c2cc[nH]/c(=N/c3ccc(-n4cnc(N5CCOCC5)n4)cc3)n2)cc(N2CCOCC2)c1,pIC50,[13],< 5.29
same,pIC50,[14],6.14
same,pIC50,[1],5.33
same,pIC50,[15],6.32
same,pIC50,[2],6.42
same,pIC50,[16],6.65
same,pIC50,[3],5.74
same,pIC50,[17],6.18
same,pIC50,[18],6.69
same,pIC50,[19],6.29
same,pIC50,[20],5.91
same,pIC50,[21],5.76
same,pIC50,[22],6.78
same,pIC50,[23],5.62
same,pIC50,[24],6.21
same,pIC50,[25],6.37
same,pIC50,[26],< 5.29
same,pIC50,[27],6.26
same,pIC50,[28],< 5.29
same,pIC50,[29],6.78
same,pIC50,[30],6.35
same,pIC50,[4],5.60
same,pIC50,[31],6.41
same,pIC50,[32],< 5.29
same,pIC50,[33],6.26
same,pIC50,[34],5.50
same,pIC50,[5],6.26
same,pIC50,[35],6.70
same,pIC50,[6],6.67
same,pIC50,[36],6.61
same,pIC50,[37],6.46
same,pIC50,[38],6.28
same,pIC50,[39],5.92
same,pIC50,[40],6.47
same,pIC50,[41],6.47
same,pIC50,[42],6.09
same,pIC50,[43],6.85
same,pIC50,[44],6.30
same,pIC50,[45],5.84
same,pIC50,[46],6.38
same,pIC50,[47],6.26
same,pIC50,[48],6.01
same,pIC50,[49],< 5.29
same,pIC50,[7],6.46
same,pIC50,[50],6.05
same,pIC50,[51],6.05
same,pIC50,[52],5.96
same,pIC50,[53],5.75
same,pIC50,[54],5.54
same,pIC50,[8],< 5.29
same,pIC50,[55],6.40
same,pIC50,[56],6.40
same,pIC50,[57],6.78
same,pIC50,[58],6.05
same,pIC50,[9],6.31
same,pIC50,[10],6.22
same,pIC50,[59],6.29
same,pIC50,[60],5.70
same,pIC50,[11],6.44
same,pIC50,[61],6.43
same,pIC50,[62],5.30
same,pIC50,[63],5.46
same,pIC50,[12],6.22
same,pIC50,[64],5.44
